The values below are quoted from earlier work in patent US20090226517A1, “PHARMACEUTICAL FORMULATIONS COMPRISING DULOXETINE” (priority 2008, published 2009).

The conditions of this data set: background statement; limited aqueous solubility.

Each structure is given as a SMILES string.

Consider `CNCC[C@H](Oc1cccc2ccccc12)c1cccs1` [Duloxetine], for which the BCS class result was “BCS class II”.
